Assays:
Plasmodium falciparum [1] = assay: NOVARTIS: Inhibition of Plasmodium falciparum 3D7 (drug-susceptible) proliferation in erythrocyte-based infection assay; assay type: functional, organism-based; conditions: Plasmodium falciparum, 3D7
Plasmodium falciparum [2] = assay: NOVARTIS: Inhibition of Plasmodium falciparum W2 (drug-resistant) proliferation in erythrocyte-based infection assay; assay type: functional, organism-based; conditions: Plasmodium falciparum, W2; read-out: EC50
[3] = NOVARTIS: Cytotoxicity against human hepatocellular carcinoma cell line (Huh7); assay type: toxicity, cell-based, Huh-7; conditions: Huh7 cells (hepatocellular carcinoma cell line)

Row | Compound | EC50 (Plasmodium falciparum [1]) | EC50 (Plasmodium falciparum [2]) | CC50 [3]
1 | OP1(O)=NP(O)(O)=NP(O)(O)=NP(O)(O)=N1 | 811 nM | > 1250 nM | > 10000 nM
2 | O=C(CSc1nc2ccccc2[nH]1)Nc1ccc(Cl)cc1Cl | > 790 nM | > 1250 nM | > 10000 nM
3 | Oc1c2c(nc3cc(-c4ccc(Cl)cc4)nn13)CCCC2 | 6480 nM | > 12500 nM | > 100000 nM
4 | CCn1c2cc(C)sc2c2cnn(CC(=O)Nc3c(C)nn(C)c3C)c(=O)c21 | > 749 nM | > 1250 nM | > 10000 nM
5 | COc1ccccc1N1CCN(c2c3c(nc4nncn24)CCC3)CC1 | > 736 nM | > 1250 nM | > 10000 nM
6 | CCCCNC(=O)c1ccc2c(c1)N=C(c1cccc(OCC)c1)N(CCCN1CCCC1=O)C2 | > 752 nM | > 1250 nM | > 10000 nM
7 | O=C(CSc1nc2ccccc2c(=O)n1-c1ccc(C(=O)N2CCOCC2)cc1)c1ccccc1 | > 772 nM | > 1250 nM | > 10000 nM
8 | CN(C)C(=O)CN(C)C(=O)c1cnc2scc(C(C)(C)C)n2c1=O | > 820 nM | > 1250 nM | > 10000 nM
9 | COCCN(CC(=O)Nc1cc(C(C)(C)C)nn1-c1ccc(C)cc1)C(=O)COCc1ccccc1 | > 818 nM | > 1250 nM | > 10000 nM
10 | CN(C)CCCNc1ncc(C(=O)NCc2ccccc2)c(NCCc2ccccc2)n1 | 817 nM | > 1250 nM | > 10000 nM
11 | O=C1C=CC(=O)N1c1ccc(Sc2ccc(N3C(=O)C=CC3=O)cc2)cc1 | > 814 nM | > 1250 nM | > 10000 nM
12 | COc1ccc(OCCOCCN2CCN(C)CC2)cc1 | > 8080 nM | > 12500 nM | > 100000 nM
13 | O=C(COc1ccccc1Cl)OCc1cc(=O)n2nc(C3CC3)sc2n1 | > 803 nM | > 1250 nM | > 10000 nM
14 | COc1ccc(NC(=O)COc2ccccc2C(C)C)c(OC)c1 | 7950 nM | > 12500 nM | > 100000 nM
15 | COc1ccc(Cn2c(SCC(=O)Nc3ccccc3OC)nc3ccsc3c2=O)cc1 | > 778 nM | > 1250 nM | > 10000 nM
16 | CC(C)CNc1nc(NCCC2CCCN2C)ncc1C(=O)NCc1ccccc1 (stereo not given) | 775 nM | > 1250 nM | > 10000 nM
17 | CC(=O)OC(OC(C)=O)C12C=CC(O1)C1C(=O)N(c3cccc(C)c3)C(=O)C12 (stereo not given) | > 794 nM | > 1250 nM | > 10000 nM
18 | O=C(OCCOc1ccc([N+](=O)[O-])cc1)c1ccc(Br)o1 | 782 nM | > 1250 nM | > 10000 nM
19 | COC(=O)c1[nH]c2ccc(Cl)cc2c1NC(=O)C(C)N1CCN(C2CCCCC2)CC1 (stereo not given) | 7740 nM | > 12500 nM | > 100000 nM
20 | CC(C)CNC(=O)c1cnc(NCCCN2CCCC2)nc1NC1CCCC1 | 774 nM | > 1250 nM | > 10000 nM
21 | COc1ccc(/C=C(\NC(=O)c2ccccc2Br)C(=O)N2CC3CC(C2)c2cccc(=O)n2C3)cc1OC (stereo not given) | > 764 nM | > 1250 nM | > 10000 nM
22 | NC(=O)C1CCN(S(=O)(=O)c2cc(Br)c(Br)s2)CC1 | > 751 nM | > 1250 nM | > 10000 nM
23 | O=C(Nc1ccc(-c2nnc(-c3ccccc3)o2)cc1)c1ccc(Br)cc1 | 750 nM | > 1250 nM | > 10000 nM
24 | CC1CCc2c(sc(NC(=O)c3ccccc3F)c2C(=O)NCc2ccccc2)C1 (stereo not given) | > 699 nM | > 1250 nM | > 10000 nM
25 | CCC(=O)N=c1sc2cc([N+](=O)[O-])ccc2n1CCOC | > 686 nM | > 1250 nM | > 10000 nM
26 | Cc1cc(C)n2nc(-c3ccc(Cl)cc3)cc2n1 | > 685 nM | > 1250 nM | > 10000 nM
27 | CCOC(=O)N1CCN(C(=O)CSc2nc(-c3ccc(Cl)cc3)cn2-c2ccc(C)cc2)CC1 | 710 nM | > 1250 nM | > 10000 nM
28 | CN(C)c1nc(Cl)nc(N(C#N)CCOc2ccccc2)n1 | > 703 nM | > 1250 nM | > 10000 nM

Row | Compound | EC50 (Plasmodium falciparum [1]) | EC50 (Plasmodium falciparum [2]) | CC50 [3]
29 | CC(C)CNC(=O)c1cnc(NCCC2CCCN2C)nc1NCCc1ccccc1 (stereo not given) | 699 nM | > 1250 nM | > 10000 nM
30 | O=C(NCc1ccccc1)c1cnc(NCCCN2CCCC2)nc1NCC1CCCCC1 | 733 nM | > 1250 nM | > 10000 nM
31 | CC(C)CNc1nc(NCCCN2CCCC2)ncc1C(=O)NCCc1ccccc1 | 719 nM | > 1250 nM | > 10000 nM
32 | Cc1nccn1CC(C)C(=O)N1CCCC(n2nc(-c3cccs3)ccc2=O)C1 (stereo not given) | > 620 nM | > 1250 nM | > 10000 nM
33 | CC(C)CNc1nc(NCCCN)ncc1C(=O)NCCc1ccccc1 | 598 nM | > 1250 nM | > 10000 nM
34 | O=C(NCc1ccccc1)c1cnc(NCCCN2CCCC2)nc1NCCc1ccccc1 | 648 nM | > 1250 nM | > 10000 nM
35 | CCCCCCC(=O)NC1CCC(Nc2ccnc3cc(Cl)ccc23)CC1 (stereo not given) | 630 nM | > 1250 nM | > 10000 nM
36 | CCOc1ccc2nc(SCc3nc(N)nc(N4CCOCC4)n3)sc2c1 | > 627 nM | > 1250 nM | > 10000 nM
37 | CCOC(=O)c1oc2cc(O)c(CC)cc2c(=O)c1-c1ccc2c(c1)OCO2 | > 834 nM | > 1250 nM | > 10000 nM
38 | COCCCNc1nc2nonc2nc1N(C)C1CCOCC1 | > 682 nM | > 1250 nM | > 10000 nM
39 | Cc1ccnc(NC(c2ccc3ccccc3c2)c2ccc3cccnc3c2O)c1 (stereo not given) | 6750 nM | > 12500 nM | > 100000 nM
40 | O=c1c(=O)n(Cc2cccc(C(F)(F)F)c2)ccn1CCc1ccccc1 | > 673 nM | > 1250 nM | > 10000 nM
41 | Cc1cccc(N(C)c2ccnc3c(-c4cccc(C(N)=O)c4)cnn23)c1 | > 843 nM | > 1250 nM | > 10000 nM
42 | Cc1ccc(C(=O)NCCNC(=O)CN2CCOCC2)cc1 | > 671 nM | > 1250 nM | > 10000 nM
43 | CN1CCCC1CCNc1ncc(C(=O)NCc2ccccc2)c(NC2CCCC2)n1 (stereo not given) | 658 nM | > 1250 nM | > 10000 nM
44 | OC(COc1ccc(OCC(O)CN2CCN(C3c4ccccc4-c4ccccc43)CC2)cc1)CN1CCN(C2c3ccccc3-c3ccccc32)CC1 (stereo not given) | > 6190 nM | > 12500 nM | > 100000 nM
45 | COc1cccc2cc(-c3nc(-c4ccccc4)cs3)c(=O)oc12 | > 611 nM | > 1250 nM | > 10000 nM
46 | O=C1CSC(=S)N1c1cccc(Cl)c1 | 6870 nM | > 12500 nM | > 100000 nM
47 | N#Cc1cn(-c2ccc(Cl)cc2)c(=O)n(Cc2c(Cl)cccc2Cl)c1=O | 816 nM | > 1250 nM | > 10000 nM
48 | Cc1ccc(NC(=O)c2nc[nH]c2C(=O)Nc2nc3ccccc3[nH]2)c(C)c1 | 7290 nM | > 12500 nM | > 100000 nM
49 | COc1ccc(CNC(=O)CCc2cn(Cc3cc(C)ccc3C)c3ccccc23)cc1OC | > 842 nM | > 1250 nM | > 10000 nM
50 | Cc1ccc(S(=O)(=O)NNC(=O)C2CCC(c3ccccc3)CC2)c2nsnc12 (stereo not given) | 727 nM | > 1250 nM | > 10000 nM
51 | Cc1nc(-c2ccncc2)nc(NCCNc2ccc(C(F)(F)F)cn2)c1Cl | 714 nM | > 1250 nM | > 10000 nM
52 | CSc1nc(N)nc(SC2C=CCCC2)c1C#N (stereo not given) | 7060 nM | > 12500 nM | > 100000 nM
53 | Cc1ccc(S(=O)(=O)Nc2ccc(C(=O)NCCC(C)C)cc2)cc1 | > 837 nM | > 1250 nM | > 10000 nM
54 | Cc1cccc(-c2ccc(NC(=O)C3CCN(Cc4cnc(C)nc4)CC3)cc2)c1 | > 6880 nM | > 12500 nM | > 100000 nM
55 | Cc1cccc2nc(N)nc(N)c12 | 753 nM | > 1250 nM | > 10000 nM
